TGI data for eight compounds are collected here from PubChem BioAssay (NCI).

Holding throughout (experiment): NCI-60 cell line screen, 48 h
The test system of assay [1] is CCRF-CEM leukemia.
In assay [2] the test system is COLO 205 colon.
In assay [3] the test system is HCC-2998 colon.
Assay [4] deals with HCT-116 colon.
Assay [5] deals with HL-60(TB) leukemia.
Assay [6] relates to HS 578T breast.
Assay [7] relates to IGROV1 ovarian.
Assay [8] concerns KM12 colon.
Assay [9] deals with MALME-3M melanoma.
Assay [10] has as its system MDA-N.
Assay [11] concerns NCI-H460 lung.
Assay [12] has as its system OVCAR-3 ovarian.
Assay [13] has as its system OVCAR-4 ovarian.
Assay [14] concerns SK-MEL-5 melanoma.
Assay [15] deals with SN12C renal.
In assay [16] the test system is SW-620 colon.
Assay [17] concerns TK-10 renal.
Assay [18] relates to UACC-257 melanoma.
Assay [19] relates to UACC-62 melanoma.
The subject of assay [20] is BT-549 breast.

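These data come from cells grown in 96-well plates and exposed to compound for 48 hours at five concentrations. At the TGI there is no net growth.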

As to `Cc1c(/C=N/NC(=S)Nc2ccc(Cl)cc2)c(=O)n(-c2ccccc2)n1C`, the TGI in [1] is more than 100 µM; in assay [2] it was more than 100 µM; in assay [3], more than 100 µM; in assay [4], more than 62.5 µM; in assay [5], more than 100 µM; in assay [6] it was 50.8 µM. Further, the TGI in [7] was 45.2 µM; in [8], 99.4 µM; in assay [9], more than 60.3 µM; in [10], more than 100 µM; in assay [11] it was more than 61 µM; in assay [12] it was more than 65.3 µM. Further, the TGI was more than 57.1 µM in [13]; more than 31.6 µM in [14]; more than 100 µM in assay [15]; more than 100 µM in [16]; more than 58.3 µM in assay [17]; more than 100 µM in assay [18]. Further, the TGI in [19] is more than 79 µM.
On to `CC(NCc1c(O)ccc2ccc(=O)oc12)C(=O)O` (stereo not drawn), for which the TGI in assay [1], in [2], in assay [3], in assay [4], in assay [5] and in assay [6] was more than 100 µM throughout. In addition, the TGI in assay [7], in assay [8], in [9], in [10], in assay [11] and in [12] was more than 100 µM each time. Further, the TGI in assay [13], in [14], in assay [15], in assay [16], in assay [17] and in [18] was more than 100 µM in each case. The compound further yielded a TGI in assay [19] of more than 100 µM.
For `CN(C)Cc1cc(C(=O)/C=C/c2ccc(Cl)c(Cl)c2)cc(CN(C)C)c1O`, the TGI was 11.7 µM in assay [1]; 2.65 µM in assay [2]; 12.5 µM in assay [3]; 12.1 µM in [4]; more than 100 µM in [5]; 8.74 µM in [6]. Moreover, the TGI was 12.4 µM in assay [7]; 4.73 µM in assay [8]; 10.4 µM in assay [9]; 10.9 µM in [10]; 7.9 µM in [11]; 5.46 µM in [12]. Moreover, the TGI worked out at 15.4 µM in assay [13]; 3.37 µM in assay [14]; 7.83 µM in [15]; 3.19 µM in assay [16]; 5.1 µM in assay [18].
Consider `O=C(Cc1ccccc1)NN1C(=O)/C(=C\c2cccc([N+](=O)[O-])c2)SC1=Nc1ccccc1`, for which the TGI in [2], in [3], in [4], in [6], in assay [7] and in [8] was more than 100 µM each time. The TGI in assay [10], in assay [11], in [12], in assay [13], in assay [14] and in [15] was more than 100 µM throughout. Moreover, the TGI in assay [16], in [17], in [18] and in [19] was more than 100 µM throughout.
As to `C[Si](C)(C)c1ccc(-c2c3ccc(-c4cc(Br)cc(Br)c4)nc3nc3nc(-c4cc(Br)cc(Br)c4)ccc23)cc1`, the TGI in [20], in assay [2], in assay [3], in assay [4], in [8] and in assay [9] was more than 100 µM in each case. For the same compound, the TGI in assay [10], in assay [11], in assay [12], in assay [13], in [14] and in assay [15] was more than 100 µM throughout. For the same compound, the TGI in assay [17], in assay [18] and in assay [19] was more than 100 µM each time.
With `CNC(=O)C1(C#N)C(c2ccccc2)C(C#N)(C(=O)NC)C1c1ccccc1` (stereo not drawn), the TGI in [1], in assay [2], in assay [3], in assay [4], in [6] and in assay [7] was more than 100 µM throughout. The TGI in assay [8], in [10], in assay [11], in assay [12], in assay [13] and in assay [14] was more than 100 µM throughout. For the same compound, the TGI in assay [15], in [16] and in [17] was more than 100 µM in each case.
As for `CC(=O)NC(Cc1ccccc1)NC(=O)O` (stereo not drawn), the TGI in assay [20], in assay [1], in [2], in assay [3], in [4] and in assay [5] was more than 100 µM throughout. In addition, the TGI in [7], in assay [8], in [9], in assay [10], in [11] and in assay [12] was more than 100 µM each time. The TGI in [13], in assay [14], in [15], in [16], in assay [17] and in assay [18] was more than 100 µM each time. This compound showed a TGI in assay [19] of more than 100 µM.
Take `CCOC(=O)CC[C@H](NC(=O)N[C@H](C)c1ccccc1)C(=O)OCC`: the TGI in [20] is more than 100 µM; in assay [1], 54.2 µM; in assay [2], 32.7 µM; in assay [3], 72.3 µM; in assay [4], more than 100 µM; in assay [5], more than 100 µM. Also, the TGI in assay [7] is more than 100 µM; in assay [8] it was more than 100 µM; in assay [10] it was 38.2 µM; in [11], more than 100 µM; in assay [12], 41.5 µM; in [13], more than 100 µM. For the same compound, the TGI in assay [14] is more than 100 µM; in assay [15], more than 100 µM; in assay [16], more than 100 µM; in assay [17] it was more than 100 µM; in [18] it was 46.6 µM; in assay [19], 34.8 µM.
